The text below walks through data of US20090155266A1, “Methods and Compositions Relating to Vascular Endothelial Growth Factor and TH2 Mediated Inflammatory Diseases” (YALE UNIVERSITY, priority 2004, published 2009).

Test [1] relates to OVA sensitized and challenged wild type mice. Briefly: OVA sensitization and challenge model of Th2 inflammation. The test is classed as in vivo. The settings on record: for antigen-stimulated IL-4 production / antigen-stimulated IL-13 production: BAL from OVA sensitized and challenged mice, antagonist IP; for onset of a Th2 mediated inflammatory disease: disease induced by allergen (ovalbumin sensitization) or genetic predisposition, summary statement; for airways hyperresponsiveness (AHR), methacholine responsiveness / BAL and tissue inflammation: wild type mice sensitized and challenged with OVA, SU1498 10 mg/kg/day or VEGF TrapR1R2 25 mg/kg, IP; for BAL and tissue inflammation: starting the day before first OVA dose. How it is done:
The OVA model was undertaken in wild type mice as previously described (Wang et al., 2000). Sensitization and challenge were undertaken in the presence and absence of the VEGF receptor antagonist SU1498 (10 mg/kg/day) or VEGF TrapR1R2 (Regeneron, Inc., Tarrytown, N.Y.) (25 mg/kg) which were given via an intraperitoneal (IP) route starting the day before the first dose of OVA. The VEGF TrapR1R2 is a fusion protein comprised of the extracellular domains of VEGFR1 and VEGFR2 coupled to the Fc-portion of IgG that binds VEGF-A, but not VEGF-B or VEGF-C (Cursiefen et al., 2004). T-bet null mutant mice (Finotto et al., 2002) were obtained from the Jackson Laboratories (Bar Harbor, Me.). At 6 weeks of age they were randomized to SU1498 or control vehicle as described above. Two weeks later phenotypic characterization was undertaken as described above.

The next test concerns the target T1, VEGF-A (Homo sapiens, UniProt P15692).
T1 sequence (P15692 207-320 limits assumed): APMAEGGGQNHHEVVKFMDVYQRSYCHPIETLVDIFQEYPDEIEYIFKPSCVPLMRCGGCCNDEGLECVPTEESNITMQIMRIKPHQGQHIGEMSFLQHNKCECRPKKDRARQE
As to conditions: cited from earlier work.

For the next test, the target named is T2, VEGF-B (Homo sapiens, UniProt P49765).
T2 sequence (P49765 22-136 limits assumed): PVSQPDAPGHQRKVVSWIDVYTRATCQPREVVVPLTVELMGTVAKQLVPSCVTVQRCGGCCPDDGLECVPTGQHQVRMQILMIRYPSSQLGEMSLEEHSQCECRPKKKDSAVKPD
As to conditions: cited from earlier work.

The next test has as its target T3, VEGF-C (Homo sapiens, UniProt P49767).
T3 sequence (P49767 112-227 limits assumed): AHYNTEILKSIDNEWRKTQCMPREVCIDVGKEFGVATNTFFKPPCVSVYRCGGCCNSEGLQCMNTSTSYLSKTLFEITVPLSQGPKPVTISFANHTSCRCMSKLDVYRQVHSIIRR
The settings on record: cited from earlier work.

Turning to `CC(C)c1cc(/C=C(\C#N)C(=O)NCCCc2ccccc2)cc(C(C)C)c1O` [SU1498, reference compound], in test [1], the “antigen-stimulated IL-4 production” value was “markedly decreased”; the “antigen-stimulated IL-13 production” value was “markedly decreased”; the “onset of a Th2 mediated inflammatory disease” value is recorded as “prevented onset”; the “airways hyperresponsiveness (AHR), methacholine responsiveness” value is on record as “markedly decreased”. In addition, in test [1], the “BAL and tissue inflammation” value is given as “markedly decreased”.

For the molecule “VEGF TrapR1R2: fusion protein comprised of the extracellular domains of VEGFR1 and VEGFR2 coupled to the Fc-portion of IgG (Regeneron)”, in test [1], the “antigen-stimulated IL-4 production” value was “markedly decreased”; the “antigen-stimulated IL-13 production” value is on record as “markedly decreased”; the “onset of a Th2 mediated inflammatory disease” value is “prevented onset”; the “airways hyperresponsiveness (AHR), methacholine responsiveness” value is given as “abrogates”. The “BAL and tissue inflammation” value in test [1] is reported as “abrogates”. Also, the “binding to VEGF-A” value with VEGF-A is recorded as “binds”. In addition, the “binding to VEGF-B” value in the test with VEGF-B was “not”. Besides, the “binding to VEGF-C” value with VEGF-C was “not”.
